We go through eight compounds from publication PMC4612778, “Limonoids from Melia azedarach Fruits as Inhibitors of Flaviviruses and Mycobacterium tubercolosis” (PLoS ONE, 2015).

Values after ≈ are worked out from the molar mass of the structure shown. “Also recorded” adds a separate entry of the source. Where two headings read alike, the source gives them in different places.

Data set [1] can be described thus: in vitro. Conditions: human.
The subject of another data set is BVDV. Nature of the data set: microbe, parasite or virus in culture. It counts as cell-based, bovine viral diarrhoea virus. The settings on record: read-out: EC50 BVDV.
Data set [2] concerns human lung adenocarcinoma epithelial cell line A549. The settings on record: previous studies; cited from earlier work.
Data set [3] is described as follows: in vitro. The settings on record: African green monkey (Cercopithecus aethiops).
Another data set has as its system Reo-1. Nature of the data set: microbe, parasite or virus in culture. It counts as cell-based, reovirus type-1.
Data set [4] has as its system M. tuberculosis H37Ra ATCC 25177. Nature of the data set: microbe, parasite or virus in culture. It counts as cell-based, Mycobacterium tuberculosis.
The test system of the next data set is YFV. Nature of the data set: microbe, parasite or virus in culture. It counts as cell-based, yellow fever virus.
A further data set has as its system HSV-1. Nature of the data set: microbe, parasite or virus in culture. The format is cell-based, human herpes 1.
The nature of data set [5]: in vitro. Conditions: hamster (Mesocricetus auratus).
In another data set the test system is HIV-1 IIIB. Nature of the data set: microbe, parasite or virus in culture. The format is cell-based, Human Immunodeficiency Virus type-1.
Data set [6] is described as follows: in vitro. The settings on record: cattle (Bos taurus).
Data set [7] deals with WNV. Nature of the data set: microbe, parasite or virus in culture. The format is cell-based, west nile virus.
Data set [8] deals with WNV. Nature of the data set: Yield reduction assay. The format is cell-based, west nile virus. The settings on record: BHK-21, m.o.i. 0.1, 72 hrs, 15μM for 4, 20 μM for 5.
The subject of data set [9] is WNV. Nature of the data set: Virucidal activity assay. It counts as cell-based, west nile virus. The settings on record: 45 min at 37°C, 6 and 20μM for 4, 20 and 50μM for 5.
For data set [10], the system named is WNV. Nature of the data set: Adsorption assay. It counts as cell-based, west nile virus. The settings on record: BHK cells, m.o.i. 1, 0-60 min at 4°C; 15μM for 4, 20μM for 5.
In data set [11] the test system is WNV. Nature of the data set: microbe, parasite or virus in culture. The format is cell-based, west nile virus. This is another data set of the same source.
For data set [12], the system named is West Nile virus, Dengue virus and Yellow Fever virus. The format is cell-based, Flaviviridae. The settings on record: read-out: EC50 range against West Nile virus, Dengue virus and Yellow Fever virus.
For the next data set, the system named is DENV-2. Nature of the data set: microbe, parasite or virus in culture. The format is cell-based, dengue virus.
Data set [13] concerns WNV. The format is cell-based, west nile virus. Conditions: for Cell viability, addition at 1, 2, 4 or 8 hours post-infection: 15 μM for 4, 20 μM for 5.
The test system of another data set is M. tuberculosis. The settings on record: against M. tuberculosis; cited from earlier work.
Setting [14] is: Bovine viral diarrhea virus isolates and strains, MDBK, in Bos taurus.
[15] abbreviates: Reovirus sp., BHK-21, read-out: EC50 Reo-1.
Setting [16] is: Mycobacterium tuberculosis, 672 h.
[17] abbreviates: Yellow fever virus, BHK-21, read-out: EC50 YFV.
The mark [18] stands for this setting: Human alphaherpesvirus 1, Vero 76, read-out: EC50 HSV-1.
Setting [19] is: Human immunodeficiency virus 1, IIIB, MT4, read-out: EC50 HIV-1IIIB.

With `COC(=O)[C@H](CCC=C(C)C)[C@@H]1[C@@H](O)C[C@]2(C)C3=CC[C@H]4C(C)(C)C(=O)CC[C@]4(C)[C@H]3CC[C@@]12C` [Compound 2, methyl kulonate], the CC50 was 35 µM in “in vitro [1]”, 100 µM in “in vitro [3]”, > 100 µM in “in vitro [5]” and 85 µM in “in vitro [6]”. The EC50 in the data set on BVDV (setting [14]) is > 85 µM; in the data set with Reo-1 (setting [15]), > 100 µM; with YFV (setting [17]) it was > 100 µM; in the data set with HSV-1 (setting [18]) it was > 100 µM; with HIV-1 IIIB (setting [19]) it was > 35 µM. In data set [2], the “Cytotoxicity towards A549” value is reported as “exhibit cytotoxicity”. Besides, the MIC in data set [4] (setting [16]) worked out at 70 µM (≈ 33.9 µg/mL).
Compound `NNC(=O)c1ccncc1` [Isoniazid, reference compound] returned an MIC in [4] (setting [16]) of 0.45 µM (≈ 0.0617 µg/mL).
With `Nc1nc2c(ncn2COCCO)c(=O)[nH]1` [Acycloguanosine, reference compound], the CC50 in “in vitro [3]” was > 100 µM. Further, the EC50 with HSV-1 (setting [18]) turned out to be 3 µM.
`CC1(C)O[C@H]1[C@H]1C[C@@H]([C@@H]2CC[C@]3(C)C4=CC[C@H]5C(C)(C)C(=O)CC[C@]5(C)[C@H]4CC[C@@]23C)[C@H](O)O1` [Compound 5, melianone]: the EC50 was 11 µM with WNV [7] (read-out: EC50 WNV); > 16 µM in the data set on BVDV; > 50 µM with WNV [11] (read-out: EC50 WNV 2hrs p.i.); 6.1 µM in the data set with WNV [11] (read-out: EC50 WNV d. i.); > 50 µM with Reo-1 (read-out: EC50 Reo-1); 3 µM in the data set with YFV (read-out: EC50 YFV). The EC50 in data set [12] is 3 to 11 µM; in the data set on DENV-2 (read-out: EC50 DENV-2), 12 µM; in the data set with HSV-1 (read-out: EC50 HSV-1), 20 µM; in the data set with HIV-1 IIIB (read-out: EC50 HIV-1IIIB) it was > 100 µM. For the same compound, the “Reduction of WNV titre (yield reduction)” value with WNV [8] is “a reduction of virus titre was observed”; with WNV [8] (listed as melianone), “Reduction of WNV titre”. In data set [2], the “Cytotoxicity towards A549” value is listed as “exhibit cytotoxicity”. Moreover, the “Virucidal activity (WNV infectivity)” value in the data set on WNV [9] was “failed to affect the WNV infectivity”; in the data set with WNV [9] (listed as melianone), “doesn’t affect the WNV infectivity”. Moreover, the CC50 in the data set with MT-4 cells is > 100 µM; in the data set with BHK-21 cells, 50 µM; in the data set with MDBK cells it was 16 µM; with Vero-76 cells, 51 µM. Besides, in the data set with WNV [10], the “WNV adsorption (virus titre)” value is “doesn’t reduce the virus titre”. Further, the MIC in [4] is >136 µM. Besides, in the data set on BHK-21 cells, the “Cytopathic effects on BHK-21 monolayers” value is on record as “did not show significant cytopathic effects”. Moreover, the “Cell viability, addition during the infection” value with WNV [13] is on record as “increases the cell viability”. In addition, the “Cell viability, pretreatment” value in the data set on WNV [13] is given as “does not increase the cells viability”. For the same compound, the “Cell viability, addition at 1, 2, 4 or 8 hours post-infection” value with WNV [13] is reported as “not more able to protect BHK-21 cells; also recorded: not more able to significantly increase the cell viability”.
For the compound `C[C@@]1(O)[C@H](O)[C@@H](CO)O[C@H]1n1cnc2c(=O)[nH]c(N)nc21` [2’-C-methyl-guanosine, reference compound], the EC50 in the data set with WNV [7] (West Nile virus, BHK-21, read-out: EC50 WNV) is 1 µM; in the data set with BVDV (setting [14]), 2 µM; in the data set on WNV [11] (West Nile virus, BHK-21, 2 h, read-out: EC50 WNV 2hrs p.i.), 1 µM; with WNV [11] (West Nile virus, BHK-21, read-out: EC50 WNV d. i.), 1 µM; in the data set on Reo-1 (setting [15]) it was 1 µM; with YFV (setting [17]) it was 1.4 µM. Further, the EC50 with DENV-2 (Dengue virus, DENV2, BHK-21, read-out: EC50 DENV-2) turned out to be 1.4 µM. Further, the “Cytopathic effects on BHK-21 monolayers” value with BHK-21 cells is given as “did not show significant cytopathic effects”. In the data set on WNV [13], the “Cell viability, addition during the infection” value is “increases the cell viability”. Besides, the CC50 was 80 µM in the data set “in vitro [5]” and > 100 µM in “in vitro [6]”.
Turning to `C/C=C(\C)C(=O)O[C@@H]1CC[C@]2(C)[C@H]3CC[C@@]4(C)[C@@H]([C@@H]5C[C@H]([C@@H]6OC6(C)C)O[C@H]5O)CC[C@]4(C)C3=CC[C@H]2C1(C)C` [Compound 4, 3-α-tigloyl-melianol], the EC50 was 3 µM in the data set with WNV [7] (read-out: EC50 WNV); > 37 µM in the data set on BVDV; > 20 µM in the data set with WNV [11] (read-out: EC50 WNV 2hrs p.i.); 3.5 µM in the data set on WNV [11] (read-out: EC50 WNV d. i.); > 20 µM with Reo-1 (read-out: EC50 Reo-1); 7 µM in the data set on YFV (read-out: EC50 YFV). In addition, the EC50 in data set [12] is 3 to 11 µM; in the data set with DENV-2 (read-out: EC50 DENV-2), 3 µM; in the data set on HSV-1 (read-out: EC50 HSV-1) it was > 100 µM; with HIV-1 IIIB (read-out: EC50 HIV-1IIIB), > 27 µM. For the same compound, the “Reduction of WNV titre (yield reduction)” value in the data set on WNV [8] is given as “a reduction of virus titre was observed”. Also, in data set [2], the “Cytotoxicity towards A549” value is reported as “exhibit cytotoxicity”. For the same compound, the results for the “Virucidal activity (WNV infectivity)” value in the data set with WNV [9] and in the data set on WNV [9] (listed as 3-tigloyl-melianol) were “failed to affect the WNV infectivity” and “doesn’t affect the WNV infectivity”, respectively. For the same compound, the CC50 with MT-4 cells turned out to be 27 µM; in the data set with BHK-21 cells, 20 µM; with MDBK cells it was 37 µM; in the data set with Vero-76 cells it was 100 µM. In the data set with Vero cells, the “Cytotoxicity against Vero cells” value is > 500 µM. In addition, the “WNV adsorption (virus titre)” value in the data set on WNV [10] is “doesn’t reduce the virus titre”. The MIC in data set [4] was found to be 29 µM (≈ 16.1 µg/mL). In addition, in the data set on BHK-21 cells, the “Cytopathic effects on BHK-21 monolayers” value is on record as “did not show significant cytopathic effects”. In addition, the “Cell viability, addition during the infection” value in the data set with WNV [13] was “increases the cell viability”. Besides, the “Cell viability, pretreatment” value with WNV [13] is “does not increase the cells viability”. Moreover, the “Cell viability, addition at 1, 2, 4 or 8 hours post-infection” value with WNV [13] is given as “not more able to protect BHK-21 cells; also recorded: not more able to significantly increase the cell viability”.
In the data set “in vitro [1]”, `O=C1Nc2ccc(Cl)cc2[C@@](C#CC2CC2)(C(F)(F)F)O1` [Efavirenz, reference compound] had a CC50 of 40 µM. The EC50 in the data set on HIV-1 IIIB (setting [19]) came to 0.002 µM.
Take 21-β-acetoxy-melianone [Compound 3]: the EC50 in the data set with BVDV is > 22 µM; in the data set on Reo-1 (read-out: EC50 Reo-1) it was > 10 µM; in the data set on YFV (read-out: EC50 YFV), > 10 µM; in the data set on HSV-1 (read-out: EC50 HSV-1), > 36 µM; in the data set on HIV-1 IIIB (read-out: EC50 HIV-1IIIB) it was > 23 µM. Also, in [2], the “Cytotoxicity towards A549” value was “exhibit cytotoxicity”. For the same compound, the CC50 in the data set on MT-4 cells stood at 23 µM; in the data set with BHK-21 cells, 10 µM; with MDBK cells, 22 µM; in the data set with Vero-76 cells it was 36 µM. The MIC with M. tuberculosis is 16 µg/mL.
